This note sets out measurements from patent publication US20230382925A1, “MODULATORS OF CYSTIC FIBROSIS TRANSMEMBRANE CONDUCTANCE REGULATOR” (VERTEX PHARMACEUTICALS INCORPORATED, priority 2020, published 2023).

Data set [1] addresses T1, CFTR (Homo sapiens, UniProt P13569, DEL508-508).
T1 construct: human bronchial epithelial (HBE) cells derived from CF subjects heterozygous for F508del; endogenous in cells; host or cells: primary human bronchial epithelial cells from CF subjects (F508del/MF-HBE)
Nature of the data set: HBE2 assay: Ussing chamber assay of CFTR-mediated short-circuit currents (F508del/MF-HBE, with 44 nM potentiator). To be noted: F508del/MF-HBE cells; single fixed concentration 3 μM with 44 nM (6R,12R)-17-amino-12-methyl-6,15-bis(trifluoromethyl)-...-pentaen-6-ol, 18-24 hours, 20% human serum. It is filed as cell-based. As for the experimental part: 1. Ussing Chamber Assay of CFTR-mediated Short-circuit Currents
Ussing chamber experiments were performed using human bronchial epithelial (HBE) cells derived from CF subjects heterozygous for F508del and a minimal function CFTR mutation (F508del/MF-HBE) and cultured as previously described (Neuberger T, Burton B, Clark H, Van Goor F Methods Mol Biol 2011:741:39-54). After four days the apical media was removed, and the cells were grown at an air liquid interface for >14 days prior to use.
To isolate the CFTR-mediated short-circuit (ISC) current, F508del/MF-HBE grown on Costar® Snapwell™ cell culture inserts were mounted in an Ussing chamber and the transepithelial ISC was measured under voltage-clamp recording conditions (Vhold=0 mV) at 37° C. The basolateral solution contained (in mM) 145 NaCl, 0.83 K2HPO4, 3.3 KH2PO4, 1.2l MgCl2, 1.2 CaCl2), 10 Glucose, 10 HEPES (pH adjusted to 7.4 with NaOH) and the apical solution contained (in mM) 145 NaGluconate, 1.2 MgCl2, 1.2 CaCl2), 10 glucose, 10 HEPES (pH adjusted to 7.4 with NaOH) and 30 μM amiloride to block the epithelial sodium channel. […] The CFTR-mediated ISC (μA/cm^2) for each condition was determined from the peak forskolin response to the steady-state current following inhibition. […]
The activity of the CFTR corrector compounds on the CFTR-mediated ISC was determined in Ussing chamber studies as described above. […]

The target of data set [2] is T2, CFTR (Homo sapiens, UniProt P13569). Nature of the data set: Membrane Potential Dye, Enteroid Assay B. The class given is cell-based. The method in brief: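 Activity given as % of a triple-combination reference (1 μM and 3 μM correctors, 300 nM acute potentiator). Enteroids were preincubated 18-24 h with compound; chloride efflux then measured 15 min by methyl oxonol fluorescence after forskolin/IBMX/Compound III stimulation in chloride-free buffer containing CaCCinh-A01 and Chicago Sky Blue.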

For data set [3] the following is noted: amide bond, 13-membered ring.
Data set [4] has as its target T2, CFTR. Nature of the data set: Membrane Potential Dye, Enteroid Assay A. It is filed as cell-based. To be noted: for EC50: read-out: Ent. A EC50. The method in brief:
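Primary human intestinal enteroid cells exposed to compound for 18–24 hours at 37 °C, then loaded 25 min with methyl oxonol membrane potential dye plus CaCC inhibitors. Chloride transport triggered in chloride-free buffer with 10 μM forskolin, 100 μM IBMX and 300 nM Compound III, fluorescence read 15 min; % Activity relative to a triple-combination corrector/potentiator control.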

Where [5] appears, read: Table 10, read-out: Ent. B EC50.

Read-outs that look alike come from different tables or passages of the source.

T2 sequence (P13569 with tags, fused parts or gaps DEL508-508): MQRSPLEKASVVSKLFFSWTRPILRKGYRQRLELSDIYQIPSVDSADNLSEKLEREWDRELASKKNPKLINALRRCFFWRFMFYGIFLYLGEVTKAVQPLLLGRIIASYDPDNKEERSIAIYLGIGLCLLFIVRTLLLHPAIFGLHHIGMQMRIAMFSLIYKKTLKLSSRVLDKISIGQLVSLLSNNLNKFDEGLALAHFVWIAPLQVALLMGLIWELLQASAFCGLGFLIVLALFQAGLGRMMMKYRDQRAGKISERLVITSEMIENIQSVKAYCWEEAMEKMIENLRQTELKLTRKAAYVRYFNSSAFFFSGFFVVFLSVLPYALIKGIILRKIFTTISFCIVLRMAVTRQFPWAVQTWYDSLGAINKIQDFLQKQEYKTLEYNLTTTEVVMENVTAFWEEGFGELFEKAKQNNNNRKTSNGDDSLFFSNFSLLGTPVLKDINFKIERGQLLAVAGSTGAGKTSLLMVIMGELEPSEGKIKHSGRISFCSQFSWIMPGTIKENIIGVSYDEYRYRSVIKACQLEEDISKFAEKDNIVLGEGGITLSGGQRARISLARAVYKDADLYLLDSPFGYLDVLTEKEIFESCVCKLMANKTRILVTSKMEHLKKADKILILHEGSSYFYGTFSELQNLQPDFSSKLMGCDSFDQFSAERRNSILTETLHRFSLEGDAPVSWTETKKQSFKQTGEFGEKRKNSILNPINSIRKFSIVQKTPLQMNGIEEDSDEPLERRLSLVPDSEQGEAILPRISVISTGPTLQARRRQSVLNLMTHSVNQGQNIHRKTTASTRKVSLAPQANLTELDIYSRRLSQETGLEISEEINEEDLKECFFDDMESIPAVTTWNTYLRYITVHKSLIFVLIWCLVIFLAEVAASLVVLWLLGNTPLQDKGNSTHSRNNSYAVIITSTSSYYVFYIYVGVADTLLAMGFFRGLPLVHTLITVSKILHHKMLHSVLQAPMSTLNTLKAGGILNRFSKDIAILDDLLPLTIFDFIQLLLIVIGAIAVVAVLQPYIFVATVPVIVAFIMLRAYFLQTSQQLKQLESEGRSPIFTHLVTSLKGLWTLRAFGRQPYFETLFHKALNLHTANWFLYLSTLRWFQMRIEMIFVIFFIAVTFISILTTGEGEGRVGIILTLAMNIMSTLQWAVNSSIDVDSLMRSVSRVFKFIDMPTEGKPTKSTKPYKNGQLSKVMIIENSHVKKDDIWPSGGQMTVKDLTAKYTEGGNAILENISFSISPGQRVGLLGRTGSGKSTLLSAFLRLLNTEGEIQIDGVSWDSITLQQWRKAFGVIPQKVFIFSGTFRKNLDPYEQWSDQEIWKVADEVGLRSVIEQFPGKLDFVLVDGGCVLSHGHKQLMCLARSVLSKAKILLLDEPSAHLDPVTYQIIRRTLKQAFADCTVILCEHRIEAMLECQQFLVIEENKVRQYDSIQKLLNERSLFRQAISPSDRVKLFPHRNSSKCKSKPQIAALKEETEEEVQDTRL
T1 sequence (P13569 with tags, fused parts or gaps DEL508-508): as above

With `Cc1cccc(C)c1-c1cc2nc(n1)NS(=O)(=O)c1cccc(c1)C(=O)N(C1CCCN(C)C1=O)[C@H](CC(C)(C)C)CO2` (stereo partly drawn) [Compound 507, (11R)-6-(2,6-Dimethylphenyl)-11-(2,2-dimethylpropyl)-12-(1-methyl-2-oxo-3-piperidyl)-2,2-dioxo-9-oxa-2λ^6-thia-3,5,12,19-tetrazatricyclo[12.3.1.14,8]nonadeca-1(18),4(19),5,7,14,16-hexaen-13-one], the “HBE2 Activity at 3 μM” value at CFTR [1] was “+++ (+++ is >60%)”.

Usually EC50 stands for the midpoint of the concentration-response curve. On to `Cc1cccc(C)c1-c1cc2nc(n1)NS(=O)(=O)c1cccc(c1)C(=O)N(C1CC3(CCN(C(=O)OC(C)(C)C)CC3)C1)[C@H](CC(C)(C)C(F)(F)F)CO2` [Compound 187, tert-Butyl 2-[(11R)-6-(2,6-dimethylphenyl)-2,2,13-trioxo-11-(3,3,3-trifluoro-2,2-dimethylpropyl)-9-oxa-2λ^6-thia-3,5,12,19-tetraazatricyclo[12.3.1.14,8]nonadeca-1(17),4(19),5,7,14(18),15-hexaen-12-yl]-7-azaspiro[3.5]nonane-7-carboxylate], for which, at CFTR [2] (Table 9), the “Ent. B Max Activity (%)” value is reported as “+++ (+++ is >60%)”. The EC50 on CFTR [2] (Table 9, read-out: Ent. B EC50) was less than 1 µM. The ring closure, isolated yield in data set [3] (from Cc1cccc(C)c1-c1cc(OC[C@@H](CC(C)(C)C(F)(F)F)NC2CC3(CCN(C(=O)OC(C)(C)C)CC3)C2)nc(NS(=O)(=O)c2cccc(C(=O)O)c2)n1, HATU/DIEA, DMF, 37.7 mM, 17.0 h) was 15%.

For `Cc1cccc(C)c1-c1cc2nc(n1)NS(=O)(=O)c1cccc(c1)C(=O)N(C1CCN(C)C1=O)[C@H](CC(C)(C)C)CO2` (stereo partly drawn) [Compound 508, (11R)-6-(2,6-Dimethylphenyl)-11-(2,2-dimethylpropyl)-12-(1-methyl-2-oxo-pyrrolidin-3-yl)-2,2-dioxo-9-oxa-2λ^6-thia-3,5,12,19-tetrazatricyclo[12.3.1.14,8]nonadeca-1(18),4(19),5,7,14,16-hexaen-13-one], on CFTR [1], the “HBE2 Activity at 3 μM” value is reported as “+++ (+++ is >60%)”.

Take `Cc1cccc(C)c1-c1cc2nc(n1)NS(=O)(=O)c1cccc(c1)C(=O)N(C1CC3(CC3)C1)[C@H](CC1(C(F)(F)F)CC1)CO2` [Compound 198, (11R)-6-(2,6-Dimethylphenyl)-2,2-dioxo-12-spiro[2.3]hexan-5-yl-11-[[1-(trifluoromethyl)cyclopropyl]methyl]-9-oxa-2λ^6-thia-3,5,12,19-tetrazatricyclo[12.3.1.14,8]nonadeca-1(18),4(19),5,7,14,16-hexaen-13-one]: at CFTR [2], the “Ent. B Max Activity (%)” value is listed as “+++ (+++ is >60%)”. Also, at CFTR [2] (read-out: Ent. B EC50), the EC50 is less than 1 µM. Moreover, on CFTR [4], the “Ent. A Max Activity (%)” value is “+++ (+++ is >60%)” and the EC50 is less than 1 µM. Further, in data set [3] (from Cc1cccc(C)c1-c1cc(OC[C@@H](CC2(C(F)(F)F)CC2)NC2CC3(CC3)C2)nc(NS(=O)(=O)c2cccc(C(=O)O)c2)n1, HATU/DIEA, DMF, 49.1 mM, 21.0 h), the ring closure, isolated yield amounted to 60%.

As to `Cc1cccc(C)c1-c1cc2nc(n1)NS(=O)(=O)c1cccc(c1)C(=O)N(C1CC3(CCN(C(=O)OC(C)(C)C)CC3)C1)[C@H](CC(C)C)CO2` [Compound 13, tert-Butyl 2-[(11R)-6-(2,6-dimethylphenyl)-11-isobutyl-2,2,13-trioxo-9-oxa-2λ^6-thia-3,5,12,19-tetrazatricyclo[12.3.1.14,8]nonadeca-1(18),4(19),5,7,14,16-hexaen-12-yl]-7-azaspiro[3.5]nonane-7-carboxylate], on CFTR [2], the “Ent. B Max Activity (%)” value is reported as “+++ (+++ is >60%)”. Further, at CFTR [2] (read-out: Ent. B EC50), the concentration for a half-maximal effect (EC50) is less than 1 µM. Further, on CFTR [4], the “Ent. A Max Activity (%)” value is “+++ (+++ is >60%)” and the EC50 is less than 1 µM. Moreover, the ring closure, isolated yield in data set [3] (from Cc1cccc(C)c1-c1cc(OC[C@@H](CC(C)C)NC2CC3(CCN(C(=O)OC(C)(C)C)CC3)C2)nc(NS(=O)(=O)c2cccc(C(=O)O)c2)n1, HATU/DIEA, DMF, 68.6 mM, 25.0 °C, 13.0 h) is 78%.

Take `Cc1cccc(C)c1-c1cc2nc(n1)NS(=O)(=O)c1cccc(c1)C(=O)N(C1CC3(CC3)C1)[C@H](CC(C)(C)O)CO2` [Compound 51, (11R)-6-(2,6-Dimethylphenyl)-11-(2-hydroxy-2-methyl-propyl)-2,2-dioxo-12-spiro[2.3]hexan-5-yl-9-oxa-2λ^6-thia-3,5,12,19-tetrazatricyclo[12.3.1.14,8]nonadeca-1(18),4(19),5,7,14,16-hexaen-13-one]: the “Ent. B Max Activity (%)” value on CFTR [2] (Table 10) was “+++ (+++ is >60%)”. Further, at CFTR [2] (setting [5]), the EC50 is 1 to 3 µM. In data set [3] (from Cc1cccc(C)c1-c1cc(OC[C@@H](CC(C)(C)O)NC2CC3(CC3)C2)nc(NS(=O)(=O)c2cccc(C(=O)O)c2)n1, T3P/Et3N, DMF/EtOAc, 26.4 mM, 4.0 h), this molecule gave a ring closure, isolated yield of 17%.

As to `Cc1cccc(C)c1-c1cc2nc(n1)NS(=O)(=O)c1cccc(c1)C(=O)N(C1CC3(CC(NC(=O)OC(C)(C)C)C3)C1)[C@H](CC(C)(C)C)CO2` (stereo partly shown) [Compound 199], the “Ent. B Max Activity (%)” value on CFTR [2] (Table 10) is given as “+++ (+++ is >60%)”. The EC50 on CFTR [2] (setting [5]) was less than 1 µM. The ring closure, isolated yield turned out to be 63% in data set [3] (from Cc1cccc(C)c1-c1cc(OC[C@@H](CC(C)(C)C)NC2CC3(CC(NC(=O)OC(C)(C)C)C3)C2)nc(NS(=O)(=O)c2cccc(C(=O)O)c2)n1, HATU/DIEA, DMF, 107.7 mM, 24.0 h) and 80% in data set [3] (from Cc1cccc(C)c1-c1cc(OC[C@@H](CC(C)(C)C)NC2CC3(CC(NC(=O)OC(C)(C)C)C3)C2)nc(NS(=O)(=O)c2cccc(C(=O)O)c2)n1, HATU/DIEA, DMF, 120.7 mM, 36.0 h).

For `Cc1cccc(C)c1-c1cc2nc(n1)NS(=O)(=O)c1cccc(n1)C(=O)N(C1CC3(CC3)C1)[C@H](CC1(C(F)(F)F)CC1)CO2` [Compound 163, (11R)-6-(2,6-Dimethylphenyl)-2,2-dioxo-12-spiro[2.3]hexan-5-yl-11-[[1-(trifluoromethyl)cyclopropyl]methyl]-9-oxa-2λ^6-thia-3,5,12,18,19-pentazatricyclo[12.3.1.14,8]nonadeca-1(18),4(19),5,7,14,16-hexaen-13-one], on CFTR [4], the “Ent. A Max Activity (%)” value is “+++ (+++ is >60%)” and the EC50 is less than 1 µM. Besides, the ring closure, isolated yield in data set [3] (from Cc1cccc(C)c1-c1cc(OC[C@@H](CC2(C(F)(F)F)CC2)NC2CC3(CC3)C2)nc(NS(=O)(=O)c2cccc(C(=O)O)n2)n1, HATU/DIEA, NMP, 99.8 mM, 25.0 °C, 16.0 h) stood at 58%.
